This note sets out measurements from US20030186967A1, “Acylresorcinol derivatives are selective vitronectin receptor inhibitors” (American Home Products Corporation, priority 1998, published 2003).

Structures can show the parent of a compound that is named as a salt.

For this experiment, the target named is T1, Vitronectin receptor αVβ3 (Homo sapiens, UniProt P05106+P06756).
T1 construct: expressed in transfected cells; host or cells: 512P5 cells (plasma membrane preparation)
Put plainly: Vitronectin Receptor αVβ3 Binding Assay. The following applies: for IC50: read-out: VnR (IC50μM).

T1 sequence (P06756 31-889 limits assumed): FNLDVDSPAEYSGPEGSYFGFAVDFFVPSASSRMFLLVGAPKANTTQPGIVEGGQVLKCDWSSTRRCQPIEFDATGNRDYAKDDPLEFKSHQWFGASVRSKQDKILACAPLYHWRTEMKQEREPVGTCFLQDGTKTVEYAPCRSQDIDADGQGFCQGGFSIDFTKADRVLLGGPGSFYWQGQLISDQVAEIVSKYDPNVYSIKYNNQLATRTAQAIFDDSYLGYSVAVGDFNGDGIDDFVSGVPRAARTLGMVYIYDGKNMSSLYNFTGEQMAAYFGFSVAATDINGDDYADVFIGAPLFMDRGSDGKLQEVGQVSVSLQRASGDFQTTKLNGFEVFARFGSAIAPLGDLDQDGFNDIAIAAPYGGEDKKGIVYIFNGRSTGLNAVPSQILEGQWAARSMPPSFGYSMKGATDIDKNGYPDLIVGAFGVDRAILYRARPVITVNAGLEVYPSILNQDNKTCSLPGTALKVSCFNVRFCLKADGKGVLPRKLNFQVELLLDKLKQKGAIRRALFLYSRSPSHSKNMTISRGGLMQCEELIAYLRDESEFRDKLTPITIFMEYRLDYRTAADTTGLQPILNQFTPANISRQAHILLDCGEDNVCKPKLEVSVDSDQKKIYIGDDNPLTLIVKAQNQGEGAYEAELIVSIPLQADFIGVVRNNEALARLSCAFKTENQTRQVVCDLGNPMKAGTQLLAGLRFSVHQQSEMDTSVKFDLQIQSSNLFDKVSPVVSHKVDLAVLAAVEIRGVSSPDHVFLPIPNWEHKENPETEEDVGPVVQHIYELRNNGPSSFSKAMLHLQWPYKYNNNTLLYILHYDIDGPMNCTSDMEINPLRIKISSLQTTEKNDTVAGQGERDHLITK
T1 sequence (P06756 891-1048 partner limits assumed): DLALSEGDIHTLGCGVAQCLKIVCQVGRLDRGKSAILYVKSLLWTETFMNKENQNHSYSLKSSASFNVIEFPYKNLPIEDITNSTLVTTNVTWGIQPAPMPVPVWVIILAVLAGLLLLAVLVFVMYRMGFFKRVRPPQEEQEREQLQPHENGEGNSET
T1 sequence (P05106 27-788): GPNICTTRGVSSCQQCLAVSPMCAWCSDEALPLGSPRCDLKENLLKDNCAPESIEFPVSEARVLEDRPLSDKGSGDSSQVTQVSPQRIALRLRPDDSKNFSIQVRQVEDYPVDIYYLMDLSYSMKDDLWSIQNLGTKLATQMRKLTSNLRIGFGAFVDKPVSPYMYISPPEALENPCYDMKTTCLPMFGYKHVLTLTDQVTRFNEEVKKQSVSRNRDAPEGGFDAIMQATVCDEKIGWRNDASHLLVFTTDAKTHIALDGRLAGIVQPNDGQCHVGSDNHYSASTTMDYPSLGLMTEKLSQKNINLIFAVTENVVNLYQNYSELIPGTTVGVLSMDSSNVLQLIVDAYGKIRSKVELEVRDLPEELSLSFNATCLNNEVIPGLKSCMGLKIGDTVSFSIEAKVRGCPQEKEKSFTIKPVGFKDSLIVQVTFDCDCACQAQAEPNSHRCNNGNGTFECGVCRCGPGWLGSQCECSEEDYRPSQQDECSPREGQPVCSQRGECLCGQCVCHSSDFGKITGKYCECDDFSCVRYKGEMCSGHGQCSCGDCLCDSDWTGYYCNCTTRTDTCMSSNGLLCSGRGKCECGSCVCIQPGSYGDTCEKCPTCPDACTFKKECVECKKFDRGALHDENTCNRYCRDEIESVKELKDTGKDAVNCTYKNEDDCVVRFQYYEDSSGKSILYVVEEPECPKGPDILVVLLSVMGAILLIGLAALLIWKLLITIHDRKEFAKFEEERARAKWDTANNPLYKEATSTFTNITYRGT

As to `COc1ccccc1NC(=O)N[C@@H](CNC(=O)c1ccc(OCCNC2=NCCCN2)cc1O)C(=O)O` [Example 25, (2S)-3-({2-hydroxy-4-[2-(1,4,5,6-tetrahydropyrimidin-2-ylamino)ethoxy]benzoyl}-amino)-2-{[(2-methoxyanilino)carbonyl]amino}propanoic acid], the IC50 came out at 0.674 µM.

On to `N=C(N)NCCOc1ccc(C(=O)NC[C@H](NC(=O)Nc2ccc(Cl)cc2)C(=O)O)c(O)c1` [Example 180, (2S)-3-{[4-(2-{[amino(imino)methyl]amino}ethoxy)-2-hydroxybenzoyl]amino}-2-{[(4-chloroanilino)carbonyl]amino}propanoic acid], for which the IC50 was found to be 19.5 µM.

Consider `Cc1ccc(C(=O)N[C@@H](CNC(=O)c2ccc(OCCNC3=NCCN3)cc2O)C(=O)O)cc1` [Example 135, (2S)-3-({4-[2-(4,5-dihydro-1H-imidazol-2-ylamino)ethoxy]-2-hydroxybenzoyl}-amino)-2-[(4-methylbenzoyl)amino]propanoic acid], for which the IC50 was > 1 µM.

With `COc1ccccc1NC(=O)N[C@@H](CNC(=O)c1ccc(OCCNc2ncccn2)cc1O)C(=O)O` [Example 79, (2S)-3-({2-hydroxy-4-[2-(pyrimidin-2-ylamino)ethoxy]benzoyl}amino)-2-{[(2-methoxyanilino)carbonyl]amino}propanoic acid], the IC50 was > 1 µM.

`Cc1cc(C(=O)N[C@@H](CNC(=O)c2ccc(OCCNC3=NCCN3)cc2O)C(=O)O)c(C)o1` [Example 137, (2S)-3-({4-[2-(4,5-dihydro-1H-imidazol-2-ylamino)ethoxy]-2-hydroxybenzoyl}-amino)-2-[(2,5-dimethyl-3-furoyl)amino]propanoic acid]: the IC50 was > 1 µM.

Turning to `C#CCOC(=O)N[C@@H](CNC(=O)c1ccc(OCCNC(=N)N)cc1O)C(=O)O` [Example 167, (2S)-3-{[4-(2-{[amino(imino)methyl]amino}ethoxy)-2-hydroxybenzoyl]amino}-2-{[(prop-2-ynyloxy)carbonyl]amino}propanoic acid], the IC50 amounted to 2.6 µM.

Turning to `CCCCCCOC(=O)N[C@@H](CNC(=O)c1ccc(OCCNC(=N)N)cc1O)C(=O)O` [Example 166, (2S)-3-{[4-(2-{[amino(imino)methyl]amino}ethoxy)-2-hydroxybenzoyl]amino}-2-{[(hexyloxy)carbonyl]amino}propanoic acid], the IC50 amounted to 0.8 µM.

Take GRGESP [reference compound]: under “reference peptides, 125I-Echistatin 50 pM, 512P5 (αVβ3-overexpressing) cell membranes”, the “IC50 (μM)” value is “inactive at 100 μM”.

Turning to `Cc1ccc(C(=O)N[C@@H](CNC(=O)c2ccc(OCCNC(=N)N)cc2O)C(=O)O)cc1` [Example 207, (2S)-3-{[4-(2-{[amino(imino)methyl]amino}ethoxy)-2-hydroxybenzoyl]amino}-2-[(4-methylbenzoyl)amino]propanoic acid], the IC50 was > 1 µM.

Turning to `CCOC(=O)N[C@@H](CNC(=O)c1ccc(OCCNC2=NCCCN2)cc1O)C(=O)O` [Example 3, (2S)-2-[(ethoxycarbonyl)amino]-3-({2-hydroxy-4-[2-(1,4,5,6-tetrahydropyrimidin-2ylamino)ethoxy]benzoyl}amino)propanoic acid], the IC50 was determined as 0.123 µM.

On to `CC(C)(C)COC(=O)N[C@@H](CNC(=O)c1ccc(OCCNC2=NCCCN2)cc1O)C(=O)O` [Example 1, (2S)-3-({2-hydroxy-4-[2-(1,4,5,6-tetrahydropyrimidin-2-ylamino)ethoxy]benzoyl}amino)-2-{[(neopentyloxy)carbonyl]amino}propanoic acid], for which the IC50 stood at 0.0241 µM.

`Cc1ccc(CNC(=O)NCCOc2ccc(C(=O)NC[C@H](NC(=O)OCc3ccccc3)C(=O)O)c(O)c2)cc1` [Example 261, (2S)-2-{[(benzyloxy)carbonyl]amino}-3-({2-hydroxy-4-[2-({[(4-methylbenzyl)-amino]carbonyl}amino)ethoxy]benzoyl}amino)propanoic acid]: the IC50 came to 20.2 µM.

On to `CC1(C)C(C(=O)N[C@@H](CNC(=O)c2ccc(OCCNC3=NCCN3)cc2O)C(=O)O)C1(C)C` [Example 123, (2S)-3-({4-[2-(4,5-dihydro-1H-imidazol-2-ylamino)ethoxy]-2-hydroxybenzoyl}-amino)-2-{[(2,2,3,3-tetramethylcyclopropyl)carbonyl]amino}propanoic acid], for which the IC50 is > 1 µM.

In the case of `CCCCCCCCOC(=O)N[C@@H](CNC(=O)c1ccc(OCCNC(=O)NCc2ccncc2)cc1O)C(=O)O` [Example 256, (2S)-3-({2-hydroxy-4-[2-({[(pyridin-4-ylmethyl)amino]carbonyl}-amino)ethoxy]-benzoyl}amino)-2-{[(octyloxy)carbonyl]amino}propanoic acid], the IC50 was found to be 9.08 µM.

As to `CCCCOC(=O)N[C@@H](CNC(=O)c1ccc(OCCNC2=NCCCN2)cc1O)C(=O)O` [Example 11, (2S)-3-({2-hydroxy-4-[2-(1,4,5,6-tetrahydropyrimidin-2-ylamino)ethoxy]-benzoyl}amino)-2-[(butoxycarbonyl)amino]propanoic acid], the IC50 stood at 0.0696 µM.

On to `CCCCCCCCNC(=O)N[C@@H](CNC(=O)c1ccc(OCCNC(=N)N)cc1O)C(=O)O` [Example 187, (2S)-3-{[4-(2-{[amino(imino)methyl]amino}ethoxy)-2-hydroxybenzoyl]amino}-2-{[(octylamino)carbonyl]amino}propanoic acid], for which the IC50 was 19.5 µM.

With `CC(=O)c1ccc(NC(=O)N[C@@H](CNC(=O)c2ccc(OCCNc3ncccn3)cc2O)C(=O)O)cc1` [Example 88, (2S)-2-{[(4-acetylanilino)carbonyl]amino}-3-({2-hydroxy-4-[2-(pyrimidin-2-ylamino)ethoxy]benzoyl}amino)propanoic acid], the IC50 was > 1 µM.

For the compound `CCOC(=O)N[C@@H](CNC(=O)c1ccc(OCCNC(=O)NCc2ccccc2)cc1O)C(=O)O` [Example 222, (2S)-3-{[4-(2-{[(benzylamino)carbonyl]amino}ethoxy)-2-hydroxybenzoyl]amino}-2-[(ethoxycarbonyl)amino]propanoic acid], the IC50 came to 20.8 µM.

In the case of `CCCCCCOC(=O)N[C@@H](CNC(=O)c1ccc(OCCNC2=NCCN2)cc1O)C(=O)O` [Example 104, (2S)-3-({4-[2-(4,5-dihydro-1H-imidazol-2-ylamino)ethoxy]-2-hydroxybenzoyl}-amino)-2-{[(hexyloxy)carbonyl]amino}propanoic acid], the IC50 was 0.086 µM.

Regarding `NC(CNC(=O)c1ccc(OCCNC2=NCCCN2)cc1O)C(=O)O` (stereo not shown) [Example 295, 2-Amino-3-[2-hydroxy-4-[2-(3,4,5,6-tetra-hydropyrimidin-2-ylamino)ethoxy]-benzoylamino]propionic acid dihydrochloride], the IC50 is 0.0018 µM.

Turning to `C=CCCOC(=O)N[C@@H](CNC(=O)c1ccc(OCCNC2=NCCCN2)cc1O)C(=O)O` [Example 7, (2S)-2-{[(but-3-enyloxy)carbonyl]amino}-3-({2-hydroxy-4-[2-(1,4,5,6-tetrahydropyrimidin-2-ylamino)ethoxy]benzoyl}amino)propanoic acid], the IC50 amounted to 0.092 µM.

With `Cc1ccc(NC(=O)N[C@@H](CNC(=O)c2ccc(OCCNc3ncccn3)cc2O)C(=O)O)cc1` [Example 83, (2S)-3-({2-hydroxy-4-[2-(pyrimidin-2-ylamino)ethoxy]benzoyl}amino)-2-[(4-toluidinocarbonyl)amino]propanoic acid], the IC50 is > 1 µM.

Take `COc1ccccc1NC(=O)N[C@@H](CNC(=O)c1ccc(OCCNC2=NCCN2)cc1O)C(=O)O` [Example 115, (2S)-3-({4-[2-(4,5-dihydro-1H-imidazol-2-ylamino)ethoxy]-2-hydroxybenzoyl}-amino)-2-{[(2-methoxyanilino)carbonyl]amino}propanoic acid]: the IC50 stood at 0.258 µM.

For `O=C(NCCOc1ccc(C(=O)NC[C@H](NC(=O)OCc2ccccc2)C(=O)O)c(O)c1)NCc1ccc(OC(F)(F)F)cc1` [Example 266, (2S)-2-{[(benzyloxy)carbonyl]amino}-3-[(2-hydroxy-4-{2-[({[4-(trifluoromethoxy)-benzyl]amino}carbonyl)amino]ethoxy}benzoyl)amino]propanoic acid], the IC50 was 29.6 µM.

`C=CCOC(=O)N[C@@H](CNC(=O)c1ccc(OCCNC(=N)N)cc1O)C(=O)O` [Example 162]: the IC50 worked out at 1.1 µM.

In the case of `CCOC(=O)CC(NC(=O)c1ccc(OCCNc2ncccn2)cc1O)c1cccnc1` (stereo not shown) [Example 281, 3-[2-Hydroxy-4-[2-(pyrimidin-2ylamino)ethoxy]-benzoylamino]-3-pyridine-3-ylpropionic acid ethyl ester], the “VnR (IC50μM)” value is “inactive”.

As to `Cc1cccc(C(=O)N[C@@H](CNC(=O)c2ccc(OCCNC3=NCCN3)cc2O)C(=O)O)c1C` [Example 140, (2S)-3-({4-[2-(4,5-dihydro-1H-imidazol-2-ylamino)ethoxy]-2-hydroxybenzoyl}-amino)-2-[(2,3-dimethylbenzoyl)amino]propanoic acid], the IC50 was 0.0978 µM.

Turning to `CCCCCCCCNC(=O)N[C@@H](CNC(=O)c1ccc(OCCNC2=NCCN2)cc1O)C(=O)O` [Example 110, (2S)-3-({4-[2-(4,5-dihydro-1H-imidazol-2-ylamino)ethoxy]-2-hydroxybenzoyl}-amino)-2-{[(octylamino)carbonyl]amino}propanoic acid], the IC50 came out at 0.544 µM.

As for `CCCOC(=O)N[C@@H](CNC(=O)c1ccc(OCCNC(=O)NCc2ccccc2)cc1O)C(=O)O` [Example 223, (2S)-3-{[4-(2-{[(benzylamino)carbonyl]amino}ethoxy)-2-hydroxybenzoyl]amino}-2-[(propoxycarbonyl)amino]propanoic acid], the IC50 worked out at 5.5 µM.

For the compound `O=C(CC1CCCCC1)N[C@@H](CNC(=O)c1ccc(OCCNC2=NCCN2)cc1O)C(=O)O` [Example 129, (2S)-2-[(2-cyclohexylacetyl)amino]-3-({4-[2-(4,5-dihydro-1H-imidazol-2-ylamino)ethoxy]-2-hydroxybenzoyl}amino)propanoic acid], the IC50 was found to be 0.635 µM.

Turning to `O=C(NC1CCCCC1)N[C@@H](CNC(=O)c1ccc(OCCNC2=NCCN2)cc1O)C(=O)O` [Example 112, (2S)-2-{[(cyclohexylamino)carbonyl]amino}-3-({4-[2-(4,5-dihydro-1H-imidazol-2-ylamino)ethoxy]-2-hydroxybenzoyl}amino)propanoic acid], the IC50 was determined as 1.09 µM.
